# Reference: patent US11965201B2, “Arginine supplementation to improve efficiency in gas fermenting acetogens” (LanzaTech NZ, Inc., priority 2015, dated 2024)
# Key:
# Type in all cases: cell-based, Clostridium autoethanogenum
# [1] = system: C. autoethanogenum DSM10061; experiment: Heterotrophic batch growth in YE-free PETC-MES media with amino acid formulations + fructose (OD600)
# Description: YE-free PETC-MES media was supplemented with various amino acid formulations—20AA, 7AA, 8AA, 14AA, 12AA, 4AA and Arginine (Table 2)—to identify if any amino acids are supporting growth. Solutions were filter sterilized and made anoxic by sparging N2.
# First, a 20AA medium was designed based on the biomass amino acid composition of Clostridium acetobutylicum (Lee et al. 2008) with final amino acid concentrations theoretically supporting production of 1 gDCW/L of biomass.
# Growth studies were carried out in batch cultivations in a volume of 50 mL media in 125 mL serum bottles with nitrogen in the headspace under shaking (unless otherwise noted) at 37° C. Optical density (OD) was measured at 600 nm with the reading ˜0.5 outside the anaerobic chamber against fully oxidized medium as reference.
# [2] = system: C. autoethanogenum DSM10061; experiment: Continuous biomass monitoring with BugLab device in serum bottle; details: before arginine depletion
# Description: As the initial fast growth was unexpected, only a couple of samples could be used for calculating tD. Thus, a BugLab biomass monitoring device was attached to a serum bottle on 4AA medium to continuously monitor the increase of biomass before arginine is depleted from the medium. This experiment confirmed the fast growth on 4AAs before arginine depletion as tD was calculated to be ˜2 h (FIG. 10).
# To obtain a more accurate value of tD on Arginine medium, a BugLab experiment was performed to continuously monitor the increase of biomass before arginine runs out. This experiment confirmed the fast growth before arginine runs out as tD was calculated to be ˜3 h (FIG. 14).
# [3] = system: C. autoethanogenum DSM 23693; experiment: Autotrophic growth and acetate production on CO/CO2/H2 gas mix with arginine supplementation; details: for decrease of doubling time by arginine supplementation: vs control without arginine
# Description: Growth was carried out in PETC-MES medium without yeast extract (Table 1) using standard anaerobic techniques (Hungate, Meth Microbiol, 3B: 117-132, 1969; Wolfe, Adv Microb Physiol, 6: 107-146, 1971) and 22 psi of CO/CO2/H2 gas mix (composition: 50% CO, 20% CO2, […], 28% N2) headspace pressure.
# To study effect of supplementation with arginine, 5 g/L of arginine was added to the media and culture growth and metabolite production during autotrophic growth was compared to the control without arginine.
# Growth was followed by measuring the optical density using a Thermo Genesys 20 spectrophotometer. […] Samples were prepared by diluting 400 μL with 100 μL of 5-sulfosalicylic acid solution (1% w/v in 1 M sulphuric acid), followed by a 3 minute centrifugation at 14,000 rpm; the supernatant was transferred to a glass vial for analysis. Separation was carried out with a 10 μL injection on to an Alltech IOA-2000 column (150 mm×6.5 mm×8 μm) at 0.7 mL/min and 65° C. under isocratic conditions, using 5 mM sulphuric acid mobile phase.
# The experiment was carried out in two biological repeats with triplicate cultures (n=3) for each condition in a volume of 40 mL media in 1 L Schott bottles at 37° C. with orbital shaking (120 rpm, shake orbit). In each case, acetogenic strain C. autoethanogenum DSM 23693 was pre-cultured in PETC-MES without yeast extract to an OD600 nm of 0.3 and a single preculture was used for inoculation.
# In the first experiment to the following conditions: PETC-MES without yeast extract+22 psi syngas (initial OD600 nm=0.005) and PETC-MES without yeast extract+22 psi syngas+5 g arginine/L (initial OD600 nm=0.005).
# In the repeat of the experiment, a culture was also inoculated into arginine supplemented media but without the addition of CO/CO2/H2 gas (22 psi of 100% N2 as headspace). This experiment comprised the following three conditions: PETC-MES without yeast extract+22 psi syngas (initial OD600 nm=[…]), PETC-MES without yeast extract+22 psi syngas+5 g arginine/L (initial OD600 nm=0.003), and PETC-MES without yeast extract+5 g arginine/L (initial OD600 nm=0.003).
compound,measurement,setting,value
N=C(N)NCCC[C@H](N)C(=O)O [arginine],doubling time tD in second stage after arginine depletion,[1]; 5 g arginine/L + 5 g fructose/L,~40 h
same,growth faster compared to supplementation with yeast extract,[1]; vs 1 g/L yeast extract,~3 fold
same,doubling time tD (BugLab),[2],~3 h
same,specific growth rate (BugLab),[2],0.21 h⁻¹
same,growth on arginine without CO/CO2/H2 gas,"[3]; 5 g arginine/L, N2 headspace, 48 hours",no growth observed
same,net acetate production,"[3]; 5 g arginine/L, until pause in growth at OD600≈0.8",no net acetate production was observed
same,doubling time tD,"[3]; autotrophic, 5 g/L arginine, 22 psi CO/CO2/H2, until OD600≈0.8",3.5 h
same,specific growth rate μ,"[3]; autotrophic, 5 g/L arginine, until OD600≈0.8",0.198
same,decrease of doubling time by arginine supplementation,[3],52%
same,decrease of doubling time by arginine supplementation,[3]; listed as Arginine,over 50%
